Source: patent US20240158385A1, “NOVEL COMPOUNDS” (Cerevance, Inc., priority 2021, published 2024)
Like-named read-outs stand apart in the source and are kept apart here.

Target: T1, human KCNK13 (Homo sapiens, UniProt Q9HB14)
T1 construct: expressed in transfected cells
T1 sequence (Q9HB14 1-408): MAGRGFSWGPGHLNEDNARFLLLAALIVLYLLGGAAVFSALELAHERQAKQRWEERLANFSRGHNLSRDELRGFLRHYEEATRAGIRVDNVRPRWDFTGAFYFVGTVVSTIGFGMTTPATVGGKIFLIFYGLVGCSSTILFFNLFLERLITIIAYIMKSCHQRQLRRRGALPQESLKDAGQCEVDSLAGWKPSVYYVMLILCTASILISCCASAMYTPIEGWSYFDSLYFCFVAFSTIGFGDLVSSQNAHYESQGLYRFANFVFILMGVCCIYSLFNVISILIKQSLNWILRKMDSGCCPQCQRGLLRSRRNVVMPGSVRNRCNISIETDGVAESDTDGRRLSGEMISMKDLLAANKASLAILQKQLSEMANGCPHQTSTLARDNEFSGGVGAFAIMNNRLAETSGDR
Test: KCNK13 antagonist activity, thallium (Tl+) flux FLIPR assay
Type: cell-based
Description: KCNK13 antagonist activity was determined by measuring changes in intracellular Thallium (Tl^+) concentrations using a Tl^+ sensitive fluorescent dye. The changes in fluorescent signal were monitored by Fluorescent Imaging Plate Reader (FLIPR™) technology available from Molecular Devices, LLC, US. KCNK13 mediated increases in intracellular Tl+concentration were readily detected by addition of a thallium sulfate stimulus. 24 hours prior to the assay, human embryonic kidney 293 cells (HEK 293 cells) stably expressing human KCNK13 were seeded in cell culture medium in PDL coated black, clear-bottom 384-well plates (commercially available from Corning Inc., 356663) and grown overnight at 37° C., 5% CO2. On the day of the assay, cell culture media was removed and cells were loaded with potassium dye (commercially sold by Molecular Devices, LLC, US, R8222) for 1 hour at room temperature in the dark. Test compounds (at 10 point half log concentration response curves from […]) were added to cells for 15 minutes prior to the addition of thallium sulfate to all wells. The IC50 values were determined from ten point concentration response curves. Curves were generated using the average of two wells for each data point.

[1] = HEK 293 cells stably expressing human KCNK13, Tl+ sensitive dye, FLIPR, compounds 15 minutes prior to thallium sulfate, 10 point half log curves from 10 PM, read-out: hKCNK13 IC50

| IC50 [1] | SMILES | IC50 |
| --- | --- | --- |
| < 500 nM | Nc1nonc1-c1nc2cccnc2n1Cc1ccc(C(F)(F)F)nc1 [Example 19, 4-[3-[[6-(trifluoromethyl)pyridin-3-yl]methyl]imidazo[4,5-b]pyridin-2-yl]-1,2,5-oxadiazol-3-amine] | – |
| < 1000 nM | Cc1nonc1-c1nc2cccnc2n1Cc1cccnn1 [Example 20, 3-methyl-4-[3-(pyridazin-3-ylmethyl)imidazo[4,5-b]pyridin-2-yl]-1,2,5-oxadiazole] | – |
| < 50 nM | Nc1nonc1-c1nc2c(F)ccc(F)c2n1Cc1cccnc1 [Example 22, 4-[4,7-difluoro-1-(pyridin-3-ylmethyl)benzimidazol-2-yl]-1,2,5-oxadiazol-3-amine] | – |
| – | Nc1nonc1-c1nc2cccnc2n1Cc1ccc(Cl)nc1 [Example 23, 4-[3-[(6-chloropyridin-3-yl)methyl]imidazo[4,5-b]pyridin-2-yl]-1,2,5-oxadiazol-3-amine] | < 50 nM |
| – | Cc1nonc1-c1nc2cccnc2n1Cc1ccc(Cl)nc1 [Example 24, 3-[3-[(6-chloropyridin-3-yl)methyl]imidazo[4,5-b]pyridin-2-yl]-4-methyl-1,2,5-oxadiazole] | < 100 nM |
| < 50 nM | Cc1nonc1-c1nc2cc(F)cc(F)c2n1Cc1cccnc1 [Example 27, 3-[5,7-difluoro-1-(pyridin-3-ylmethyl)benzimidazol-2-yl]-4-methyl-1,2,5-oxadiazole] | – |
| < 50 nM | N#Cc1ncc(Cn2c(-c3nonc3N)nc3c(F)ccc(F)c32)cn1 [Example 28, 5-[[2-(4-amino-1,2,5-oxadiazol-3-yl)-4,7-difluoro-benzimidazol-1-yl]methyl]pyrimidine-2-carbonitrile] | – |
| – | Nc1nonc1-c1nc2cc(F)cnc2n1Cc1ccc(Cl)nc1 [Example 29, 4-[3-[(6-chloropyridin-3-yl)methyl]-6-fluoro-imidazo[4,5-b]pyridin-2-yl]-1,2,5-oxadiazol-3-amine] | < 50 nM |
| < 50 nM | Nc1nonc1-c1nc2cc(Br)ccc2n1Cc1cccnc1 [Example 33, 4-[5-bromo-1-(pyridin-3-ylmethyl)benzimidazol-2-yl]-1,2,5-oxadiazol-3-amine] | – |
| < 1000 nM | CN(C)c1ccc2c(c1)nc(-c1nonc1N)n2Cc1cccnc1 [Example 34, 4-[5-(dimethylamino)-1-(pyridin-3-ylmethyl)benzimidazol-2-yl]-1,2,5-oxadiazol-3-amine] | – |
| < 50 nM | N#Cc1cnc(Cn2c(-c3nonc3N)nc3cccc(F)c32)cn1 [Example 35, 5-[[2-(4-amino-1,2,5-oxadiazol-3-yl)-7-fluoro-benzimidazol-1-yl]methyl]pyrazine-2-carbonitrile] | – |
| < 100 nM | N#Cc1cnc(Cn2c(-c3nonc3N)nc3c(F)cccc32)cn1 [Example 36, 5-[[2-(4-amino-1,2,5-oxadiazol-3-yl)-4-fluoro-benzimidazol-1-yl]methyl]pyrazine-2-carbonitrile] | – |
| < 50 nM | Cc1nonc1-c1nc2ccccc2n1Cc1ccc(C#N)nc1 [Example 37, 5-[[2-(4-methyl-1,2,5-oxadiazol-3-yl)benzimidazol-1-yl]methyl]pyridine-2-carbonitrile] | – |
| – | Cc1nonc1-c1nc2c(F)cccc2n1Cc1ccc(Cl)nc1 [Example 39, 3-[1-[(6-chloropyridin-3-yl)methyl]-4-fluoro-benzimidazol-2-yl]-4-methyl-1,2,5-oxadiazole] | < 200 nM |
| < 100 nM | Cc1nonc1-c1nc2c(F)cccc2n1Cc1ccc(C#N)nc1 [Example 40, 5-[[4-fluoro-2-(4-methyl-1,2,5-oxadiazol-3-yl)benzimidazol-1-yl]methyl]pyridine-2-carbonitrile] | – |
| < 100 nM | Cc1nonc1-c1nc2cccc(F)c2n1Cc1cnc(C#N)cn1 [Example 41, 5-[[7-fluoro-2-(4-methyl-1,2,5-oxadiazol-3-yl)benzimidazol-1-yl]methyl]pyrazine-2-carbonitrile] | – |
| < 1000 nM | Cc1nonc1-c1nc2c(F)cccc2n1Cc1cnc(C#N)cn1 [Example 42, 5-[[4-fluoro-2-(4-methyl-1,2,5-oxadiazol-3-yl)benzimidazol-1-yl]methyl]pyrazine-2-carbonitrile] | – |
| < 1000 nM | COc1ccc(Cn2c(-c3nonc3C)nc3cccc(F)c32)cn1 [Example 43, 3-[7-fluoro-1-[(6-methoxypyridin-3-yl)methyl]benzimidazol-2-yl]-4-methyl-1,2,5-oxadiazole] | – |
| < 50 nM | Cc1nonc1-c1nc2cccc(F)c2n1Cc1cnc(C#N)nc1 [Example 44, 5-[[7-fluoro-2-(4-methyl-1,2,5-oxadiazol-3-yl)benzimidazol-1-yl]methyl]pyrimidine-2-carbonitrile] | – |
| < 100 nM | Cc1nonc1-c1nc2c(F)cccc2n1Cc1cnc(C#N)nc1 [Example 45, 5-[[4-fluoro-2-(4-methyl-1,2,5-oxadiazol-3-yl)benzimidazol-1-yl]methyl]pyrimidine-2-carbonitrile] | – |
| < 100 nM | Cc1nonc1-c1nc2cccc(F)c2n1Cc1ccc(C#N)nn1 [Example 46, 6-[[7-fluoro-2-(4-methyl-1,2,5-oxadiazol-3-yl)benzimidazol-1-yl]methyl]pyridazine-3-carbonitrile] | – |
| < 200 nM | Cc1nonc1-c1nc2c(F)cccc2n1Cc1ccc(C#N)nn1 [Example 47, 6-[[4-fluoro-2-(4-methyl-1,2,5-oxadiazol-3-yl)benzimidazol-1-yl]methyl]pyridazine-3-carbonitrile] | – |
| < 1000 nM | CCOc1ccc(Cn2c(-c3nonc3C)nc3c(F)cccc32)cn1 [Example 48, 3-[1-[(6-ethoxypyridin-3-yl)methyl]-4-fluoro-benzimidazol-2-yl]-4-methyl-1,2,5-oxadiazole] | – |
| < 100 nM | Cc1nonc1-c1nc2cccnc2n1Cc1ccc(C#N)nc1 [Example 50, 5-[[2-(4-methyl-1,2,5-oxadiazol-3-yl)imidazo[4,5-b]pyridin-3-yl]methyl]pyridine-2-carbonitrile] | – |
| < 500 nM | N#Cc1ccc(Cn2c(-c3nonc3N)nc3cccnc32)cn1 [Example 51, 5-[[2-(4-amino-1,2,5-oxadiazol-3-yl)imidazo[4,5-b]pyridin-3-yl]methyl]pyridine-2-carbonitrile] | – |
| < 100 nM | Cc1nonc1-c1nc2cccc(F)c2n1Cc1ccc(C#N)nc1 [Example 52, 5-[[7-fluoro-2-(4-methyl-1,2,5-oxadiazol-3-yl)benzimidazol-1-yl]methyl]pyridine-2-carbonitrile] | – |
| < 100 nM | COc1ccc(Cn2c(-c3nonc3C)nc3ccccc32)cn1 [Example 53, 3-[1-[(6-methoxypyridin-3-yl)methyl]benzimidazol-2-yl]-4-methyl-1,2,5-oxadiazole] | – |
| < 500 nM | Cc1nonc1-c1nc2ccccc2n1Cc1ccc(O)nc1 [Example 54, 5-[[2-(4-methyl-1,2,5-oxadiazol-3-yl)benzimidazol-1-yl]methyl]pyridin-2-ol] | – |
| < 100 nM | Cc1nonc1-c1nc2ccc(F)cc2n1Cc1ccc(C#N)nc1 [Example 55, 5-[[6-fluoro-2-(4-methyl-1,2,5-oxadiazol-3-yl)benzimidazol-1-yl]methyl]pyridine-2-carbonitrile] | – |
| < 100 nM | Cc1nonc1-c1nc2ccc(F)c(F)c2n1Cc1cccnc1 [Example 56, 3-[6,7-difluoro-1-(pyridin-3-ylmethyl)benzimidazol-2-yl]-4-methyl-1,2,5-oxadiazole] | – |

| SMILES | IC50 [1] | IC50 |
| --- | --- | --- |
| Cc1nonc1-c1nc2cccc(F)c2n1Cc1ccc(Cl)nc1 [Example 38, 3-[1-[(6-chloropyridin-3-yl)methyl]-7-fluoro-benzimidazol-2-yl]-4-methyl-1,2,5-oxadiazole] | < 50 nM | – |
